From ChEMBL document CHEMBL4033618, “Covalently linked kanamycin - Ciprofloxacin hybrid antibiotics as a tool to fight bacterial resistance” (Bioorg Med Chem, 2017) come the findings set out here.

The subject of data set [1] is Escherichia coli. The experiment in a line: Antibacterial activity against kanamycin-resistant Escherichia coli AG100A by double microdilution method. Type of data set: functional. Background: In broth dilution the organism is exposed to a series of concentrations in liquid medium.
Data set [2] has as its system Bacillus subtilis. The experiment in a line: Antibacterial activity against aminoglycosides-susceptible Bacillus subtilis by double microdilution method. Type of data set: functional.
Data set [3] deals with Staphylococcus epidermidis. The experiment in a line: Antibacterial activity against aminoglycosides-susceptible Staphylococcus epidermidis by double microdilution method. The class given is functional.
Data set [4] in a line: Inhibition of Escherichia coli DNA gyrase using relaxed pBR322 DNA as substrate by agarose gel electrophorosis method.
Data set [5] can be described thus: Inhibition of Escherichia coli topoisomerase 4 using supercoiled pBR322 DNA as substrate by agarose gel electrophorosis method.
Data set [6] has as its system Escherichia coli. The experiment in a line: Inhibition of protein translation in Escherichia coli S30 cell extract using circular DNA with pBESTluc after 60 mins. Type of data set: functional.
Data set [7] relates to Bacillus spizizenii. As to the kind of experiment: Antibacterial activity against Bacillus subtilis ATCC 6633 in 15th subculture in presence of equimolar concentration of kanamycin A by double microdilution method. Type of data set: functional.
Data set [8] can be described thus: Acute toxicity in iv dosed mouse at pH 6.6 administered for 4 days. The following applies: in vivo. The class given is organism-based.
The subject of data set [9] is Escherichia coli. The experiment in a line: Ratio of MIC for aminoglycosides-resistant Escherichia coli BL21 harboring pET11d encode for APH(3')-2b resistance enzyme to MIC for Escherichia coli BL21. Type of data set: functional.
The test system of data set [10] is Escherichia coli. As to the kind of experiment: Antibacterial activity against kanamycin-resistant Escherichia coli AG100B by double microdilution method. Type of data set: functional.
In data set [11] the test system is Escherichia coli. As to the kind of experiment: Antibacterial activity against aminoglycosides-susceptible Escherichia coli R477-100 by double microdilution method. The class given is functional.
The test system of data set [12] is Escherichia coli. The experiment in a line: Antibacterial activity against aminoglycosides-susceptible Escherichia coli 25922 by double microdilution method. The following applies: ATCC 25922. Type of data set: functional.
For data set [13], the system named is Escherichia coli. As to the kind of experiment: Antibacterial activity against Escherichia coli BL21 by double microdilution method. The class given is functional.
In data set [14] the test system is Escherichia coli. The experiment in a line: Antibacterial activity against aminoglycosides-resistant Escherichia coli BL21 harboring pSF815 encode for bifunctional AAC(6')/APH(2\") resistance enzyme by double microdilution method. Type of data set: functional.
Data set [15] concerns Escherichia coli. The experiment in a line: Ratio of MIC for aminoglycosides-resistant Escherichia coli BL21 harboring pSF815 encode for bifunctional AAC(6')/APH(2\") resistance enzyme to MIC for Escherichia coli BL21. The class given is functional.
The subject of data set [16] is Escherichia coli. As to the kind of experiment: Antibacterial activity against aminoglycosides-resistant Escherichia coli BL21 harboring pET11d encode for APH(3')-2b resistance enzyme by double microdilution method. The class given is functional.
The test system of data set [17] is Escherichia coli. As to the kind of experiment: Antibacterial activity against aminoglycosides-resistant Escherichia coli BL21 harboring pETSACG1 encode for APH(3')-3a resistance enzyme by double microdilution method. The class given is functional.
For data set [18], the system named is Escherichia coli. As to the kind of experiment: Ratio of MIC for aminoglycosides-resistant Escherichia coli BL21 harboring pETSACG1 encode for APH(3')-3a resistance enzyme to MIC for Escherichia coli BL21. Type of data set: functional.
Data set [19] relates to Escherichia coli. As to the kind of experiment: Antibacterial activity against Escherichia coli XL1 blue by double microdilution method. Type of data set: functional.
The test system of data set [20] is Escherichia coli. The experiment in a line: Antibacterial activity against Escherichia coli XL1 blue harboring pET9d encode for APH(3')-1a resistance enzyme by double microdilution method. The class given is functional.
Data set [21] relates to Escherichia coli. The experiment in a line: Ratio of MIC for Escherichia coli XL1 blue harboring pET9d encode for APH(3')-1a resistance enzyme to MIC for Escherichia coli XL1 blue. The class given is functional.
The subject of data set [22] is Escherichia coli. As to the kind of experiment: Resistance index, ratio of MIC for Escherichia coli ATCC 35218 in 15th subculture to MIC for Escherichia coli ATCC 35218 in first subculture. The class given is functional.
Data set [23] relates to Bacillus spizizenii. As to the kind of experiment: Resistance index, ratio of MIC for Bacillus subtilis ATCC 6633 in 15th subculture to MIC for Bacillus subtilis ATCC 6633 in first subculture. The class given is functional.
For data set [24], the system named is Escherichia coli. As to the kind of experiment: Antibacterial activity against Escherichia coli ATCC 35218 in 15th subculture in presence of equimolar concentration of ciprofloxacin by double microdilution method. Type of data set: functional.
Data set [25] relates to Bacillus spizizenii. The experiment in a line: Antibacterial activity against Bacillus subtilis ATCC 6633 in 15th subculture in presence of equimolar concentration of ciprofloxacin by double microdilution method. The class given is functional.
The mark [26] stands for this setting: Escherichia coli, 1 h, read-out: IC50.

Molecules are shown by their SMILES. Converted amounts (≈) assume the structure as drawn. The source made the active and inactive calls. The calls are words filed in the database; no cut-off is given here.

For the compound `O=C(O)c1cn(C2CC2)c2cc(N3CCNCC3)c(F)cc2c1=O` [CIPROFLOXACIN], the MIC was less than 0.005 µg/mL in data set [1], 0.02 µg/mL (≈ 0.0604 µM) in [2] and 0.094 µg/mL (≈ 0.284 µM) in [3]. Moreover, the half-inhibitory concentration (IC50) in data set [4] (read-out: IC50) was 1300 nM; in data set [5] (read-out: IC50), 8.6 µM; in data set [6] it was “Not Active”. The result in data set [7] was Active.
As for `NCC[C@H](O)C(=O)N[C@@H]1C[C@H](N)[C@@H](O[C@H]2O[C@H](CN)[C@@H](O)[C@H](O)[C@H]2O)[C@H](O)[C@H]1O[C@H]1O[C@H](CO)[C@@H](O)[C@H](N)[C@H]1O` [AMIKACIN], the LD50 at 96 h in [8] was determined as 300 mg/kg.
As to `NC[C@H]1O[C@H](O[C@H]2[C@H](O)[C@@H](O[C@H]3O[C@H](CO)[C@@H](O)[C@H](N)[C@H]3O)[C@H](NCc3cn(Cc4ccc(CN5CCN(c6cc7c(cc6F)c(=O)c(C(=O)O)cn7C6CC6)CC5)cc4)nn3)C[C@@H]2N)[C@H](O)[C@@H](O)[C@@H]1O`, the Ratio worked out at 1 in data set [9]; 1 in [15]; 1 in [18]; 1 in data set [21]; 4 in [22]; 4 in data set [23]. For the same compound, the minimal inhibitory concentration (MIC) in [10] was determined as 12 µg/mL (≈ 12 µM); in data set [1] it was 0.28 µg/mL (≈ 0.28 µM); in [11] it was 6 µg/mL (≈ 6.01 µM); in data set [12], 6 µg/mL (≈ 6.01 µM); in [2], 3 µg/mL (≈ 3 µM); in data set [3], 3 µg/mL (≈ 3 µM). The MIC in data set [13] is 0.8 µg/mL (≈ 0.801 µM); in data set [14] it was 0.1 µg/mL (≈ 0.1 µM); in [16], 0.1 µg/mL (≈ 0.1 µM); in [17], 0.1 µg/mL (≈ 0.1 µM); in data set [19], 3 µg/mL (≈ 3 µM); in data set [20] it was 3 µg/mL (≈ 3 µM). In addition, the IC50 was determined as 2600 nM in data set [4] (read-out: IC50), 7.9 µM in data set [5] (read-out: IC50) and 10700 nM in data set [6] (setting [26]).
`NC[C@@H]1O[C@H](O[C@H]2[C@@H](O)[C@H](O[C@@H]3[C@@H](O)[C@H](N)C[C@H](N)[C@H]3O[C@H]3O[C@H](CN)[C@@H](O)[C@H](O)[C@H]3N)O[C@@H]2CO)[C@H](N)[C@@H](O)[C@@H]1O` [FRAMYCETIN]: the LD50 at 96 h in data set [8] worked out at 24 mg/kg.
Turning to `NC[C@H]1O[C@H](O[C@H]2[C@H](O)[C@@H](O[C@H]3O[C@H](CO)[C@@H](O)[C@H](N)[C@H]3O)[C@H](N)C[C@@H]2N)[C@H](O)[C@@H](O)[C@@H]1O` [KANAMYCIN], the Ratio in data set [9] is recorded as greater than 32; in data set [15] it was greater than 32; in data set [18], greater than 32; in [21], greater than 128; in data set [22], 15; in data set [23], 15. The MIC in data set [10] is 384 µg/mL (≈ 793 µM); in data set [1], 96 µg/mL (≈ 198 µM); in [11] it was 12 µg/mL (≈ 24.8 µM); in data set [12], 48 µg/mL (≈ 99.1 µM); in [2], 1.5 µg/mL (≈ 3.1 µM); in [3], 1.5 µg/mL (≈ 3.1 µM). In addition, the minimal inhibitory concentration (MIC) is 12 µg/mL (≈ 24.8 µM) in data set [13]; greater than 384 µg/mL in data set [14]; greater than 384 µg/mL in [16]; greater than 384 µg/mL in data set [17]; 3 µg/mL (≈ 6.19 µM) in data set [19]; greater than 384 µg/mL in data set [20]. Further, the half-inhibitory concentration (IC50) entry in [4] is “Not Active”; in [5], “Not Active”; in [6] (setting [26]), 30 nM. Moreover, the outcome in data set [24] was inactive. The result in data set [25] was Active. The compound also showed an LD50 at 96 h in [8] of 280 mg/kg.
As to `NC[C@H]1O[C@H](O[C@H]2[C@H](O)[C@@H](O[C@H]3O[C@H](CO)[C@@H](O)[C@H](N)[C@H]3O)[C@H](NCc3cn(CC(O)CN4CCN(c5cc6c(cc5F)c(=O)c(C(=O)O)cn6C5CC5)CC4)nn3)C[C@@H]2N)[C@H](O)[C@@H](O)[C@@H]1O` (stereo not given in full), the Ratio in data set [9] came to 1.5; in data set [15], 1.5; in data set [18], 1.5; in [21], 1; in data set [22], 1.33; in [23], 2. Moreover, the MIC was 12 µg/mL (≈ 12.6 µM) in data set [10]; 0.37 µg/mL (≈ 0.388 µM) in data set [1]; 3 µg/mL (≈ 3.15 µM) in [11]; 1.5 µg/mL (≈ 1.57 µM) in data set [12]; 1.5 µg/mL (≈ 1.57 µM) in [2]; 6 µg/mL (≈ 6.3 µM) in data set [3]. Moreover, the MIC in [13] was determined as 0.09 µg/mL (≈ 0.0944 µM); in data set [14] it was 0.3 µg/mL (≈ 0.315 µM); in [16], 0.3 µg/mL (≈ 0.315 µM); in [17], 0.3 µg/mL (≈ 0.315 µM); in [19] it was 3 µg/mL (≈ 3.15 µM); in data set [20], 3 µg/mL (≈ 3.15 µM). Besides, the IC50 in data set [4] (read-out: IC50) came out at 5900 nM; in [5] (read-out: IC50), 19.8 µM; in data set [6] (setting [26]), 1270 nM.

A word on the MIC: it is the lowest concentration found to suppress growth. Read a high MIC as weaker potency. Broadly, the IC50 is the concentration that inhibits the measured activity by half. In general, LD50 refers to the dose expected to kill half of the subjects tested.
